Experimental data: US12213978B2, “Madrasin-derivative compounds, composition and uses thereof for treating cancer” (INSTITUT GUSTAVE ROUSSY, priority 2018, dated 2025)

Columns and labels:
SF3B1 = SF3B1 (Homo sapiens, UniProt O75533+Q7RTV0); conditions: cited from earlier work
[1] = system: MCA205 sarcoma cells expressing the intron-derived SL8 antigen; assay: T-cell assay: B3Z specific T-cell activation by MCA205 cells expressing the intron-derived SL8 antigen; format: cell-based, mouse
Protocol: (§1) MCA205 mouse sarcoma cell line is cultured at 37° C. under 5% CO2 in RPMI 1640 medium (Life Technologies) in the presence of 1% glutamine, 1% sodium pyruvate, 1% non-essential amino-acids, 1% penicillin/streptomycin and 10% FBS (Life Technologies). B16F10 mouse melanoma cell line is cultured at 37° C. under 5% CO2 in DMEM medium (Life Technologies) containing 1% glutamine, 1% penicillin/streptomycin and 10% FCS under standard conditions. Stable MCA205-Globin-SL8-intron cell line are cultured under the same condition as MCA205 cell line with additional 500 μg/ml G418 (Life Technologies) for selection. Stable B16F10-Globin-SL8-intron cell line are cultured under the same condition as B16F10 cell line with additional 500 μg/ml G418 (Life Technologies) for selection. The SL8/Kb-specific (B3Z) T-cell reporter hybridoma are cultured at 37° C. under 5% CO2 in RPMI 1640 medium (Life Technologies) in the presence of 1% L-glutamine, 1% penicillin/streptomycin, 50 μM β-mercaptoéthanol and 10% FCS.
(§2) MCA205 and B16F10 mouse cell lines are transfected with the plasmid YFP-Globin-SL8-intron or with the PCDNA3 empty plasmid (negative control) with the transfection reagent jetPRIME (Ozyme) or GeneJuice (Millipore) respectively according to each manufacturer protocol. Twenty-four hours after transfection, cells are treated with different doses of Madrasin (Sigma SML 1409), Madra.HCl (3·HCl) or the different compounds herein cited. Cells are then washed three times with PBS 1× and 5.10^4 tumor cells are co-cultured with 1.10^5 B3Z hybridoma in a 96-well plate. In positive control wells, 4 μg/ml of synthetic peptide SL8 is added. Cells are then incubated overnight at 37° C. with 5% CO2. The plate is centrifuged at 1200 rpm for 5 min, cells are washed twice with PBS 1× and lysed for 5 min at 4° C. under shaking in 0.2% TritonX-100, 0.2% DTT, 0.5M K2HPO4, 0.5M KH2PO4. The lysate is centrifuged at 3000 rpm for 10 min and the supernatant is transferred to a 96-well optiplate (OptiPlaque-96, PerkinElmer). A revelation buffer containing 10 mM MgCl2, 11.2 mM β-mercaptoethanol, 0.0015% IGEPAL® CA-630 and 40 μM 4-Methylumbelliferyl β-D-Galactopyranoside (MUG) in PBS is added and the plate is incubated at room temperature for 3 hours. Finally, the β-galactosidase activity is measured using the FLUOstar OPTIMA (BMG LABTECH Gmbh, 30 Offenburg, Germany). Results are expressed as mean±SEM. *P<0.05, **P<0.01, ***P<0.001 (unpaired student t test).

[2] = system: B16F10 melanoma cells expressing the intron-derived SL8 antigen; assay: T-cell assay: B3Z specific T-cell activation by B16F10 cells expressing the intron-derived SL8 antigen; format: cell-based, mouse
Protocol: as §1, §2

[3] = system: MCA205 sarcoma cells expressing the globin-SL8-intron construct; assay: Tumor challenge: MCA205 globin-SL8-intron tumors in immunocompetent C57BL/6 mice; format: in vivo, mouse; conditions: for survivors: 120 days after tumor inoculation
Protocol: (§3) Wild type MCA205 sarcoma cells or MCA205 sarcoma cells expressing the globin-SL8-intron construct (MCA205 globin-SL8-intron) were subcutaneously inoculated into the flank of immunocompetent C57BL/6 mice subsequently injected intraperitoneally with 20 mg/kg or 40 mg/kg of Madra.HCl at day 4, 7, 10 and 14 post tumor inoculation. Tumor size was assessed every 3 to 4 days until the established ethical endpoints were reached. The panel C represents the growth curve of MCA205 sarcoma cells expressing the globin-SL8-intron construct (MCA205 globin-SL8-intron), the panel D represents the tumor size at day 25. The panel E represents the growth curve of Wild type MCA205 sarcoma cells (MCA205 WT), the panel F represents the tumor size at day 21. Data are given as mean±SEM. *p<0.05, **p<0.01 (ANOVA with Tukey's multiple comparison test comparing all groups).
(§4) Wild type MCA205 sarcoma cells or MCA205 sarcoma cells expressing the globin-SL8-intron construct (MCA205 globin-SL8-intron) were subcutaneously inoculated into the flank of immunocompetent C57BL/6 mice subsequently injected intraperitoneally with 20 mg/kg of EYP59 at day 4, 7, 10 and 14 post tumor inoculation. Tumor size was assessed every 3 to 4 days until the established ethical endpoints were reached (A). The upper panel B represents the growth curve of MCA205 sarcoma cells expressing the globin-SL8-intron construct (MCA205 globin-SL8-intron), the lower panel B represents the tumor size at day 23. The upper panel C represents the growth curve of Wild type MCA205 sarcoma cells (MCA205 WT), the lower panel C represents the tumor size at day 19. The panel D represents the growth curve of Wild type MCA205 sarcoma cells (MCA205 WT) in immunodeficient nu/nu mice with the same settings as previously described for the immunocompetent mice. Data are given as mean±SEM. *p<0.05, **p<0.01 (ANOVA with Tukey's multiple comparison test comparing all groups).
(§5) C57Bl/6J female mice are obtained from Harlan Laboratories Ltd, Switzerland. 7 week-old mice are injected subcutaneously into the right flank with 1.10^5 MCA205 sarcoma or B16F10 melanoma cells or 1.5.10^5 MCA205 globin-SL8-intron or B16F10 globin-SL8-intron cells. Sarcoma cells are injected in 100 μL sterile PBS while melanoma cells are injected in 50:50 PBS:Matrigel to prevent tumor cell dissemination. Madra.HCl is injected 4, 7, 10 and 14 days post tumor inoculation, in 100 μL H2O+[…] (2-Hydroxypropyl)-β-cyclodextrin (w/v). In the same manner EYP59 (compound 7) is injected 4, 7, 10 and 14 days post tumor inoculation, in 100 μL H2O. Area of the tumor is recorded every 3 to 4 days until the tumor reaches the ethical end points. […] Results are expressed as mean±SEM. *p<0.05, **P<0.01, ***P<0.001 (ANOVA with Tukey's multiple comparison test comparing all groups).

[4] = system: Wild type MCA205 sarcoma cells; assay: Tumor challenge: wild type MCA205 tumors in immunocompetent C57BL/6 mice; format: in vivo, mouse
Protocol: as §3, §4
Wild type MCA205 sarcoma cells were subcutaneously inoculated into the flank of immunocompetent C57BL/6 mice subsequently injected intratumorally with 2.5 mg/kg of EYP59 at day 4, 7, 10 and 14 post tumor inoculation or intravenously with 5 mg/kg of EYP59 at day 4, 7, 10 and 14 post tumor inoculation. The upper panel A represents the growth curve of wild type MCA205 sarcoma cells, the lower panel A represents the tumor size at day 21. The upper panel B represents the growth curve of wild type MCA205 sarcoma cell, the lower panel B represents the tumor size at day 25. Data are given as mean±SEM. *p<0.05, **p<0.01 (ANOVA with Tukey's multiple comparison test comparing all groups).
as §5

[5] = system: Wild type MCA205 sarcoma cells; assay: Tumor challenge: wild type MCA205 tumors in immunodeficient nu/nu mice; format: in vivo, mouse; conditions: 20 mg/kg
Protocol: as §4
In order to assess the requirement of the immune response for this effect, inventors tested the impact of 20 mg/kg EYP59 treatment in immunodeficient nu/nu mice with the same settings as previously described and observed that it has no effect on the tumor growth (FIG. 7D).

[6] = system: MCA205 globin-SL8-intron cells; assay: Re-challenge of tumor-free mice at day 100 with MCA205 globin-SL8-intron cells; format: in vivo, mouse; conditions: mice with complete tumor regression after treatment, re-challenged 100 days later, right flank
Excerpt: (§6) Growth curve of MCA205 globin-SL8-intron cells and B16F10 WT cells inoculated at day 100 into the right and the left flank, respectively, of C57BL/6 mice which experienced complete tumor regression after treatment with Madra.HCl.
(§7) Finally, mice which were inoculated with MCA205 tumor cells expressing the Globin-intron-SL8 construct, and that experienced complete tumor regression after treatment with Madra.HCl as described above were re-challenged 100 days later with MCA205 tumor cells expressing the Globin-intron-SL8 construct on the right flank and with B16F10 tumor cells on the left flank.

B16F10 WT cells = assay: Re-challenge of tumor-free mice at day 100 with B16F10 WT cells; format: in vivo, mouse; conditions: mice with complete tumor regression after treatment, re-challenged 100 days later, left flank
Excerpt: as §6, §7

Solubility in water = format: physicochemical

## CC[C@H](O)[C@@H](C)[C@H]1O[C@@H]1C[C@@](C)(O)/C=C/C=C(\C)[C@H]1OC(=O)C[C@H](O)CC[C@@](C)(O)[C@@H](OC(=O)N2CCN(C3CCCCCC3)CC2)/C=C/[C@@H]1C [E7107]
SF3B1
  outcome of testing in human: stopped because of problems of toxicity

## Cc1nc(Nc2nc(C)c3ccc(OP(=O)(O)O)cc3n2)[nH]c(=O)c1C [EYP59, Sodium 2-((4,5-dimethyl-6-oxo-1,6-dihydropyrimidin-2-yl)amino)-4-methylquinazolin-7-yl Phosphate]
[1]; MCA205, 60 μM, O/N
  PTP-SL8 presentation (B3Z T-cell activation): increase
[2]; B16F10, 60 μM, O/N
  PTP-SL8 presentation (B3Z T-cell activation): increase
[3]; 20 mg/kg intraperitoneally, day 23 after challenge
  reduction of tumor growth: 85%
[4]; 2.5 mg/kg intratumorally, day 21 after challenge
  reduction of tumor growth: 75%
[4]; 5 mg/kg intravenously, day 25 after challenge
  reduction of tumor growth: 80%
[4]; 20 mg/kg intraperitoneally, day 19 after challenge
  reduction of tumor growth: 70%
[5]
  effect on the tumor growth: no effect

## COc1ccc2c(C)nc(Nc3nc(C)c(C)c(=O)[nH]3)nc2c1.Cl [Madra.HCl, Madrasin hydrochloride]
[1]; MCA205, 5 μM or 10 μM, dose dependent
  PTPs-dependent antigen presentation (B3Z T-cell activation): increase
[2]; B16F10, 5 μM or 10 μM, dose dependent
  PTPs-dependent antigen presentation (B3Z T-cell activation): increase
[3]; 20 mg/kg intraperitoneally
  survivors: around 15%
[3]; 20 mg/kg intraperitoneally, day 27 after challenge
  reduction of tumor growth: 50%
[3]; 40 mg/kg intraperitoneally
  survivors: around 25%
[4]; 20 mg/kg intraperitoneally, day 21 after challenge
  reduction of tumor growth: 40%
[4]; 40 mg/kg intraperitoneally, day 21 after challenge
  reduction of tumor growth: 40%
[6]
  tumor growth after re-challenge: did not grow
B16F10 WT cells
  tumor growth after re-challenge: grew over time
Solubility in water
  solubility in water: able to be dissolved in water
